{"source": "paper PMC10018608", "about": "(Signal Transduction and Targeted Therapy, 2023)", "key": {"in vivo [1]": {"assay": "in vivo", "conditions": "male, Sprague-Dawley, rat"}, "in vivo [2]": {"assay": "in vivo", "conditions": "male, beagle, dog"}, "[3]": {"tested_on": "SARS-CoV-2 Omicron BA.1 (B.1.1.529.1)", "assay": "In vitro antiviral screening, viral genome copies by RT-qPCR in VeroE6-TMPRSS2", "format": "cell-based", "conditions": "Omicron BA.1, VeroE6-TMPRSS2"}, "hERG channel": {"biological_target": "hERG channel (Homo sapiens, UniProt Q12809)", "sequence (Q12809 whole entry)": "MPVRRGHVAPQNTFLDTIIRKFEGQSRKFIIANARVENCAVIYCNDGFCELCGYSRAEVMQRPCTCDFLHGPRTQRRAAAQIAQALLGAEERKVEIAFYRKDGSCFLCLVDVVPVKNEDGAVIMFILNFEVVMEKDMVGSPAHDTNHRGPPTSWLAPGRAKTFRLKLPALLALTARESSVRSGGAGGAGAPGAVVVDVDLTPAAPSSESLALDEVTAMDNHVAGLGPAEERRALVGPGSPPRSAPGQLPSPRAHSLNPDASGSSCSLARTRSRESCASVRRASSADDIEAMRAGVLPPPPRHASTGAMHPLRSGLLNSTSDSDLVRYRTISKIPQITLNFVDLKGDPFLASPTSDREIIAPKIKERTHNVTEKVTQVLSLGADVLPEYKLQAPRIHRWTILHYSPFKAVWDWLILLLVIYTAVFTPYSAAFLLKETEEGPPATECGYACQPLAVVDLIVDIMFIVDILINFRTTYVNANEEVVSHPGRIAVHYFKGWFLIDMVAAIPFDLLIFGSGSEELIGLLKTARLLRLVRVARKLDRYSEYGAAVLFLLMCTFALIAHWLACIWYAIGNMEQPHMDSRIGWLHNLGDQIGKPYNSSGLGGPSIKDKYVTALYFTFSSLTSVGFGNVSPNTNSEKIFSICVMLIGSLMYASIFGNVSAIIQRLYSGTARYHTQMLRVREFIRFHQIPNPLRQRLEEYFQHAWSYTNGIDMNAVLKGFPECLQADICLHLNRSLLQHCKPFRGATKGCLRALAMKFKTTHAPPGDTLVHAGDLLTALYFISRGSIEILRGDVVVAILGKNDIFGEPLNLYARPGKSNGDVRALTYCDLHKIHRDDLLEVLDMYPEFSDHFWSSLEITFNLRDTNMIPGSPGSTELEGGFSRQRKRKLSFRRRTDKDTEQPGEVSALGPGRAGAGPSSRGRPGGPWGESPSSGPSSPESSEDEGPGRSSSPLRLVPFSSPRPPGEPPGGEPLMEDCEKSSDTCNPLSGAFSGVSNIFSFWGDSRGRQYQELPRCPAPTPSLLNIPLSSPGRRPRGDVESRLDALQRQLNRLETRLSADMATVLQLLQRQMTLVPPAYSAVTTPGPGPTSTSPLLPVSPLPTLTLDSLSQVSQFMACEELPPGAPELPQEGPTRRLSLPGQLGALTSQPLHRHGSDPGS", "assay": "cell-based"}, "in vitro [4]": {"assay": "in vitro", "format": "in vitro ADME", "conditions": "human, microsomes, HLM 0.5 mg/mL, 1 μM"}, "in vivo [5]": {"assay": "in vivo", "conditions": "male, cynomolgus monkey"}, "in vitro [6]": {"assay": "in vitro", "format": "in vitro ADME, human", "conditions": "human plasma, equilibrium dialysis; read-out: plasma unbound fraction"}, "human plasma protein": {"tested_on": "human plasma protein", "assay": "in vitro", "format": "in vitro ADME", "conditions": "human plasma, 1 μM, equilibrium dialysis 5 h"}, "MERS-CoV": {"tested_on": "MERS-CoV", "assay": "microbe, parasite or virus in culture", "format": "cell-based", "conditions": "Middle East respiratory syndrome-related coronavirus, VeroE6/TMPRSS2, read-out: EC50 (plaque reduction)"}, "[7]": {"conditions": "Monkey"}}, "note": "Where two headings read alike, the source gives them in different places."}
{"smiles": "COC[C@@H](NC(=O)C1CCCC(F)(F)C1)C(=O)N[C@H](Cc1ccccc1)C(=O)C(=O)NCc1nccs1", "note": "(stereo partly drawn) [SY110, N-((R)-1-(((R)-3,4-dioxo-1-phenyl-4-((thiazol-2-ylmethyl)amino)butan-2-yl)amino)-3-methoxy-1-oxopropan-2-yl)-3,3-difluorocyclohexane-1-carboxamide]", "values": [{"measurement": "AUC(0-inf)", "setting": "in vivo [1]; iv, 1 mg/kg", "value": "2320 ± 592", "unit": "ng·h/mL"}, {"measurement": "AUC(0-t)", "setting": "in vivo [1]; iv, 1 mg/kg", "value": "2300 ± 587", "unit": "ng·h/mL"}, {"measurement": "Cmax", "setting": "in vivo [1]; iv, 1 mg/kg", "value": "1740 ± 285", "unit": "ng/mL"}, {"measurement": "Tmax", "setting": "in vivo [1]; iv, 1 mg/kg", "value": 0.08, "unit": "h"}, {"measurement": "clearance", "setting": "in vivo [1]; iv, 1 mg/kg", "value": "7.47 ± 1.67", "unit": "mL/min/kg"}, {"measurement": "half-life", "setting": "in vivo [1]; iv, 1 mg/kg", "value": "280 ± 11.4", "unit": "min"}, {"measurement": "AUC(0-inf)", "setting": "in vivo [1]; po, 10 mg/kg", "value": "20200 ± 2600", "unit": "ng·h/mL"}, {"measurement": "AUC(0-t)", "setting": "in vivo [1]; po, 10 mg/kg", "value": 19000, "unit": "ng·h/mL"}, {"measurement": "Cmax", "setting": "in vivo [1]; po, 10 mg/kg", "value": "1430 ± 98.5", "unit": "ng/mL"}, {"measurement": "Tmax", "setting": "in vivo [1]; po, 10 mg/kg", "value": "4 ± 2", "unit": "h"}, {"measurement": "bioavailability", "setting": "in vivo [1]; po, 10 mg/kg", "value": 82.8, "unit": "%"}, {"measurement": "half-life", "setting": "in vivo [1]; po, 10 mg/kg", "value": "310 ± 176", "unit": "min"}, {"measurement": "AUC(0-inf)", "setting": "in vivo [2]; iv, 1 mg/kg", "value": "628 ± 113", "unit": "ng·h/mL"}, {"measurement": "AUC(0-t)", "setting": "in vivo [2]; iv, 1 mg/kg", "value": "624 ± 113", "unit": "ng·h/mL"}, {"measurement": "Cmax", "setting": "in vivo [2]; iv, 1 mg/kg", "value": "1270 ± 333", "unit": "ng/mL"}, {"measurement": "Tmax", "setting": "in vivo [2]; iv, 1 mg/kg", "value": 4.98, "unit": "min"}, {"measurement": "clearance", "setting": "in vivo [2]; iv, 1 mg/kg", "value": 27.1, "unit": "mL/min/kg"}, {"measurement": "half-life", "setting": "in vivo [2]; iv, 1 mg/kg", "value": "36.6 ± 3", "unit": "min"}, {"measurement": "AUC(0-inf)", "setting": "in vivo [2]; po, 10 mg/kg", "value": "8290 ± 378", "unit": "ng·h/mL"}, {"measurement": "AUC(0-t)", "setting": "in vivo [2]; po, 10 mg/kg", "value": "8240 ± 370", "unit": "ng·h/mL"}, {"measurement": "Cmax", "setting": "in vivo [2]; po, 10 mg/kg", "value": "3060 ± 136", "unit": "ng/mL"}, {"measurement": "Tmax", "setting": "in vivo [2]; po, 10 mg/kg", "value": 60, "unit": "min"}, {"measurement": "bioavailability", "setting": "in vivo [2]; po, 10 mg/kg", "value": 132, "unit": "%"}, {"measurement": "half-life", "setting": "in vivo [2]; po, 10 mg/kg", "value": "335 ± 74.4", "unit": "min"}, {"measurement": "antiviral activity among the six compounds tested", "setting": "[3]", "value": "most potent antiviral activity"}, {"measurement": "no observed adverse effect level", "setting": "14 days repeated dose toxicity study, text says rats", "value": 600, "unit": "mg/kg"}, {"measurement": "Results, repeated dose two-week toxicity study", "setting": "mice, p.o., 600 mg/kg, twice daily, 14 days", "value": "without death, significant body weight change, or pathological changes in the heart, liver, lung, kidney, or spleen"}, {"measurement": "IC50", "setting": "hERG channel", "value": "> 30", "unit": "µM"}, {"measurement": "remaining at 0 h", "setting": "in vitro [4]; 0 min, Mean, read-out: Percent Remaining (%) 0 min", "value": 100, "unit": "%"}, {"measurement": "remaining at 5 min", "setting": "in vitro [4]; 5 min, Mean, read-out: Percent Remaining (%) 5 min", "value": 80.7, "unit": "%"}, {"measurement": "remaining at […]", "setting": "in vitro [4]; 15 min, Mean, read-out: Percent Remaining (%) 15 min", "value": 65.4, "unit": "%"}, {"measurement": "remaining at 0.5 h", "setting": "in vitro [4]; 30 min, Mean, read-out: Percent Remaining (%) 30 min", "value": 48, "unit": "%"}, {"measurement": "remaining at 0.75 h", "setting": "in vitro [4]; 45 min, Mean, read-out: Percent Remaining (%) 45 min", "value": 37.2, "unit": "%"}, {"measurement": "remaining at 1 h", "setting": "in vitro [4]; 60 min, Mean, read-out: Percent Remaining (%) 60 min", "value": 29.8, "unit": "%"}, {"measurement": "CLint scaled", "setting": "in vitro [4]; scaling factor 1254.2", "value": 49.2, "unit": "mL/min/kg"}, {"measurement": "AUC(0-inf)", "setting": "in vivo [5]; iv, 1 mg/kg", "value": "506 ± 60.7", "unit": "ng·h/mL"}, {"measurement": "AUC(0-t)", "setting": "in vivo [5]; iv, 1 mg/kg", "value": "501 ± 59.9", "unit": "ng·h/mL"}, {"measurement": "Cmax", "setting": "in vivo [5]; iv, 1 mg/kg", "value": "567 ± 38.2", "unit": "ng/mL"}, {"measurement": "Tmax", "setting": "in vivo [5]; iv, 1 mg/kg", "value": 0.08, "unit": "h"}, {"measurement": "clearance", "setting": "in vivo [5]; iv, 1 mg/kg", "value": 33.3, "unit": "mL/min/kg"}, {"measurement": "half-life", "setting": "in vivo [5]; iv, 1 mg/kg", "value": "43.8 ± 12", "unit": "min"}, {"measurement": "AUC(0-t)", "setting": "in vivo [5]; po, 10 mg/kg", "value": "1220 ± 56.8", "unit": "ng·h/mL"}, {"measurement": "Cmax", "setting": "in vivo [5]; po, 10 mg/kg", "value": "242 ± 54.2", "unit": "ng/mL"}, {"measurement": "Tmax", "setting": "in vivo [5]; po, 10 mg/kg", "value": "2.33 ± 1.53", "unit": "h"}, {"measurement": "bioavailability", "setting": "in vivo [5]; po, 10 mg/kg", "value": 24.4, "unit": "%"}, {"measurement": "half-life", "setting": "in vivo [5]; po, 10 mg/kg", "value": "334 ± 63", "unit": "min"}, {"measurement": "fraction unbound", "setting": "in vitro [6]", "value": 0.301}, {"measurement": "Fraction of Bound (%)", "setting": "human plasma protein", "value": 69.9, "unit": "%"}, {"measurement": "EC50", "setting": "MERS-CoV", "value": 6.27, "unit": "µM"}, {"measurement": "MTRlast", "setting": "[7]; i.v. (1 mg/kg)", "value": "0.90 ± 0.18", "unit": "h"}, {"measurement": "MTRlast", "setting": "[7]; p.o. (10 mg/kg)", "value": "4.71 ± 0.89", "unit": "h"}]}
